Reference: ChEMBL document CHEMBL5241114, “A comprehensive review of BET-targeting PROTACs for cancer therapy” (Bioorg Med Chem, 2022)

What was measured:
[1] = target: T1, Bromodomain-containing protein 4 (Homo sapiens, UniProt O60885); experiment: Induction of BRD4 degradation in human HEK293T cells at 10 uM measured at 6 hrs relative to control; type: cell-based
[2] = target: T1, Bromodomain-containing protein 4; experiment: Induction of BRD4 degradation in human HEK293T cells; type: cell-based
BXPC-3 = experiment: Antiproliferative activity against human BXPC-3 cells assessed as inhibition of cell growth incubated for 72 hrs by MTT assay; type: functional, cell-based; conditions: BXPC-3, 72 h
CWR22R = experiment: Antitumor activity against human 22Rv1 cells xenografted in Nu/Nu mouse assessed as tumor growth inhibition at 30 mg/kg, sc; type: functional; conditions: read-out: TGI
[3] = target: T1, Bromodomain-containing protein 4; experiment: Binding affinity to BRD4 bromodomain 1 in human Ramos cells; type: cell-based
NAMALVA = experiment: Antiproliferative activity against human NAMALVA cells; type: functional
[4] = Antiproliferative activity against human Burkitts lymphoma cells; type: functional; conditions: Burkitts lymphoma cell
RS4-11 [5] = experiment: Antiproliferative activity against human RS4-11 cells assessed as reduction in cell viability incubated for 72 hrs under dark condition; type: functional, cell-based; conditions: RS4-11, 72 h
RS4-11 [6] = experiment: Antiproliferative activity against human RS4-11 cells assessed as reduction in cell viability incubated for 72 hrs under light irradiation; type: functional, cell-based; conditions: RS4-11, light or radiation study
SUD4 = experiment: Antiproliferative activity against human SU-DHL-4 cells assessed as reduction in cell viability measured after 48 hrs by MTT assay; type: functional
MV4-11 [7] = experiment: Cytotoxicity against human MV4-11 cells measured after 96 hrs; type: functional, cell-based; conditions: MV4-11, 96 h
MDA-MB-468 [8] = experiment: Antiproliferative activity against human MDA-MB-468 cells; type: functional, cell-based
[9] = target: T1, Bromodomain-containing protein 4; experiment: Induction of BRD4 (unknown origin) degradation at 1 uM relative to control
[10] = target: T1, Bromodomain-containing protein 4; experiment: Induction of BRD4 degradation in human HD-MB03 cells measured after 12 hrs; type: cell-based
MDA-MB-468 [11] = experiment: Antitumor activity against human MDA-MB-468 cells xenografted in mouse assessed as tumor growth inhibition at 5 mg/kg, iv; type: functional; conditions: read-out: TGI
[12] = target: T1, Bromodomain-containing protein 4; experiment: Induction of BRD4 degradation in human HD-MB03 cells at 100 nM measured at 12 hrs relative to control; type: cell-based
MV4-11 [13] = experiment: Cytotoxicity against human MV4-11 cells; type: functional, cell-based
[14] = target: T1, Bromodomain-containing protein 4; experiment: Induction of degradation of BRD4 (unknown origin)
Caspase-3/Caspase-7 = target: T2, Caspase-3/Caspase-7 (Homo sapiens, UniProt P42574+P55210); experiment: Activation of caspase 3/7 in human 22Rv1 cells by Caspase-Glo reagent based analysis; type: cell-based
T2 sequence (P42574 whole entry): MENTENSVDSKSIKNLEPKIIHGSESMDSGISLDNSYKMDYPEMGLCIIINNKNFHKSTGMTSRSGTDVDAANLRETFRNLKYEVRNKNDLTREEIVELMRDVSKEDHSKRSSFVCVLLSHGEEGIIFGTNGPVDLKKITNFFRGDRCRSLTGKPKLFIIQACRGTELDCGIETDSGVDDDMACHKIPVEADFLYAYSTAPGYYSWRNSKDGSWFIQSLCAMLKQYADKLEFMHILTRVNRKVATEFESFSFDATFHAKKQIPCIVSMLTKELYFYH
T2 sequence (P55210 whole entry): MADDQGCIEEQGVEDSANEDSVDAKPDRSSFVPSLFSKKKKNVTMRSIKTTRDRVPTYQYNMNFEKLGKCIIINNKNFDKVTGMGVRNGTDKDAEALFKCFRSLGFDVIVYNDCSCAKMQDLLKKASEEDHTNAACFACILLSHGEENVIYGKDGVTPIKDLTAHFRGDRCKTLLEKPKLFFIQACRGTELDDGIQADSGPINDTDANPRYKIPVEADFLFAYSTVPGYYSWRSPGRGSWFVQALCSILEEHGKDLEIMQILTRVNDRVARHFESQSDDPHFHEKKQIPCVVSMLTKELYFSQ

[15] = target: T1, Bromodomain-containing protein 4; experiment: Induction of BRD4 degradation in human 231MFP cells at 10 uM incubated for 60 mins by Western blot analysis relative to control; type: cell-based
MDA-MB-468 [16] = experiment: Antiproliferative activity against human MDA-MB-468 cells assessed as inhibition of cell growth; type: functional, cell-based
MV4-11 [17] = experiment: Antiproliferative activity against human MV4-11 cells assessed as inhibition of cell growth; type: functional, cell-based
MM1.S = experiment: Antiproliferative activity against human MM1.S cells assessed as inhibition of cell growth; type: functional, cell-based
[18] = Half life of the compound in DMSO; type: physicochemical
HL-60 = experiment: Antiproliferative activity against human HL-60 cells assessed as inhibition of cell growth; type: functional, cell-based
MV4-11 [19] = experiment: Antiproliferative activity against human MV4-11 cells assessed as cell growth inhibition measured after […] by Cell Titre Glo Luminescent assay; type: functional, cell-based
EOL1 = experiment: Antiproliferative activity against human EOL1 cells assessed as inhibition of cell growth; type: functional, cell-based
[20] = target: T3, Bromodomain-containing protein 2 (Homo sapiens, UniProt P25440); experiment: Induction of BRD2 degradation in human LNCaP-95 cells incubated for 16 hrs by Western blot analysis; type: cell-based
[21] = target: T3, Bromodomain-containing protein 2; experiment: Induction of BRD2 degradation in human VCaP cells incubated for 16 hrs by Western blot analysis; type: cell-based
[22] = target: T3, Bromodomain-containing protein 2; experiment: Induction of BRD2 degradation in human 22Rv cells incubated for 16 hrs by Western blot analysis; type: cell-based; conditions: 22rv1
[23] = target: von Hippel-Lindau disease tumor suppressor/Bromodomain-containing protein 2 (Homo sapiens, UniProt P25440+P40337); experiment: Protac activity at BRD2/VHL-bound E3 ligase in human 22Rv1 cells assessed as reduction c-Myc level incubated for 24 hrs by Western blot analysis; type: cell-based
[24] = target: T1, Bromodomain-containing protein 4; experiment: Induction of BRD4 degradation in human 231MFP cells; type: cell-based
[25] = target: T1, Bromodomain-containing protein 4; experiment: Induction of BRD4 degradation in human HeLa cells incubated for 24 hrs by Western blot analysis; type: cell-based
[26] = target: T1, Bromodomain-containing protein 4; experiment: Induction of BRD4 degradation in human HEK293T cells at 20 uM relative to control; type: cell-based
[27] = target: T1, Bromodomain-containing protein 4; experiment: Induction of BRD4 degradation in human EOL1 cells relative to control; type: cell-based
[28] = target: T1, Bromodomain-containing protein 4; experiment: Induction of BRD4 degradation in human EOL1 cells; type: cell-based

T3 sequence (P25440 whole entry): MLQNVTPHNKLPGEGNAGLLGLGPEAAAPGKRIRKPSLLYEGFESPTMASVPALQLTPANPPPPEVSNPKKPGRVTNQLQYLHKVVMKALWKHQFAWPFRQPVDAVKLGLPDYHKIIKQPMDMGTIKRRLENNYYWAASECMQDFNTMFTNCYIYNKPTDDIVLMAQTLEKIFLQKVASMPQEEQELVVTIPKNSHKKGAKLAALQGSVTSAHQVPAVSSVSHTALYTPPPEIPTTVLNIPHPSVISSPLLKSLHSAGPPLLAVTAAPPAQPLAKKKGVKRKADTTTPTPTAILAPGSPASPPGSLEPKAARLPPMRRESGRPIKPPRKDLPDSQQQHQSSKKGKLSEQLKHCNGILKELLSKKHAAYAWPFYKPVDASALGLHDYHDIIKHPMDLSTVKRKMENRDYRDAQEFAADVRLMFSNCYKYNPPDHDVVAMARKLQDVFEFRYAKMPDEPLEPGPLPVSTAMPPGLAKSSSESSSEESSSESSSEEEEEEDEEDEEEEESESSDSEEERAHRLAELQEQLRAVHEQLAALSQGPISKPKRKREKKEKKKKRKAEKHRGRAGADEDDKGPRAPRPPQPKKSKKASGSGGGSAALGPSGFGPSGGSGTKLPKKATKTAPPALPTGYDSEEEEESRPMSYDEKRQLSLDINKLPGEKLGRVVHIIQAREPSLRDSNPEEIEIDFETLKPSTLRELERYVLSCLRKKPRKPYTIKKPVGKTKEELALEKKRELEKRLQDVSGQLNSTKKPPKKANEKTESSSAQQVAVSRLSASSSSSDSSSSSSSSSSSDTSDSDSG
von Hippel-Lindau disease tumor suppressor/Bromodomain-containing protein 2, sequence (P25440 whole entry): as above
von Hippel-Lindau disease tumor suppressor/Bromodomain-containing protein 2, sequence (P40337 whole entry): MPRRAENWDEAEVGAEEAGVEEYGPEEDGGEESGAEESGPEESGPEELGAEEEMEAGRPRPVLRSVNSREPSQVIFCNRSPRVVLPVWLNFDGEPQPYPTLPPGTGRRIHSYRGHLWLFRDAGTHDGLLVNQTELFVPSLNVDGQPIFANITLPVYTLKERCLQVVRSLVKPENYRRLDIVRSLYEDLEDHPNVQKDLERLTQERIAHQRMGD

## Cc1sc2c(c1C)C(c1ccc(Cl)cc1)=N[C@@H](CC(=O)NCCCNC(=O)CN1CCOc3cc(N(CCC#N)C(=O)CCl)ccc31)c1nnc(C)n1-2
[1]
  Emax: 71%
[2]
  DC50: 810 nM

## CCS(=O)(=O)Nc1ccc(Oc2ccc(F)cc2F)c(-c2cn(C)c(=O)c3[nH]ccc23)c1 [MIVEBRESIB]
BXPC-3
  IC50: 1220 nM

## Cc1sc2c(c1C)C(c1ccc(Cl)cc1)=N[C@@H](CC(=O)Nc1ccc(O)cc1)c1nnc(C)n1-2 [BIRABRESIB]
CWR22R
  inhibition in vivo at 30 mg/kg: 38%

## COc1cc(CN(CCCCNC(=O)COc2cccc3c2C(=O)N(C2CCC(=O)NC2=O)C3=O)C(=O)C[C@@H]2N=C(c3ccc(Cl)cc3)c3c(sc(C)c3C)-n3c(C)nnc32)c([N+](=O)[O-])cc1OC (stereo partly specified)
[3]
  IC50: 7600 nM
NAMALVA
  GI50: 340 nM
[4]
  GI50: 400 nM

## COc1cc(/N=N/c2cccc3c2CN(C2CCC(=O)NC2=O)C3=O)cc(OC)c1OCC(=O)NCCCCNC(=O)C[C@@H]1N=C(c2ccc(Cl)cc2)c2c(sc(C)c2C)-n2c(C)nnc21 (stereo partly specified)
RS4-11 [5]
  EC50: 610 nM
RS4-11 [6]
  EC50: 88.5 nM

## Cc1sc2c(c1C)C(c1ccc(Cl)cc1)=N[C@@H](CC(=O)OC(C)(C)C)c1nnc(C)n1-2
SUD4
  GC50: 3120 nM

## Cc1c(C(=O)NCCCCCNc2cccc3c2C(=O)N(C2CCC(=O)NC2=O)C3=O)sc2c1C(c1ccc(Cl)cc1)=N[C@@H](CC(=O)OC(C)(C)C)c1nnc(C)n1-2 (stereo partly specified)
[2]
  DC50: 5 nM

## CCn1nc(C2CC2)cc1Nc1nc(C(=O)NCCCOCCOCCOCCCNc2cccc3c2C(=O)N(C2CCC(=O)NC2=O)C3=O)nc2[nH]c3cc(-c4c(C)noc4C)c(OC)cc3c12 (stereo unspecified)
[3]
  IC50: 22 nM
MV4-11 [7]
  IC50: 6 nM
MDA-MB-468 [8]
  IC50: < 10 nM
[9]
  Emax: 93%
NAMALVA
  GI50: 340 nM
[10]
  DC50: 230 nM
[4]
  GI50: 400 nM
MDA-MB-468 [11]
  inhibition in vivo at 5 mg/kg: 85%
[12]
  Emax: 63%
MV4-11 [13]
  IC50: 1240 nM
[14]
  DC50: 5 nM

## Cc1sc2c(c1C)C(c1ccc(Cl)cc1)=N[C@@H](CC(=O)NCCOCCOCCN1CCOc3cc(N(CCC#N)C(=O)CCl)ccc31)c1nnc(C)n1-2
[1]
  Emax: 85%
[2]
  DC50: 1100 nM

## Cc1ncsc1-c1ccc(CNC(=O)[C@@H]2C[C@@H](O)CN2C(=O)[C@@H](NC(=O)COCC(C)(COCCOCCOCCNC(=O)C[C@@H]2N=C(c3ccc(Cl)cc3)c3c(sc(C)c3C)-n3c(C)nnc32)COCCOCCOCCNC(=O)C[C@@H]2N=C(c3ccc(Cl)cc3)c3c(sc(C)c3C)-n3c(C)nnc32)C(C)(C)C)cc1
Caspase-3/Caspase-7
  EC50: 2 nM

## Cc1sc2c(c1C)C(c1ccc(Cl)cc1)=N[C@@H](CC(=O)NCCCCOc1ccc(Oc3ccc(N(Cc4ccccc4)C(=O)CCl)cc3)cc1)c1nnc(C)n1-2
[15]
  Activity: 30%

## Cc1sc2c(c1C)C(c1ccc(Cl)cc1)=N[C@@H](CC(=O)NCCOCCNC(=O)CN1CCOc3cc(N(CCC#N)C(=O)CCl)ccc31)c1nnc(C)n1-2
[1]
  Emax: 81%
[2]
  DC50: 820 nM

## Cc1sc2c(c1C)C(c1ccc(Cl)cc1)=N[C@@H](CC(=O)NCCCCCNc1cccc3c1CN(C1CCC(=O)NC1=O)C3=O)c1nnc(C)n1-2 (stereo partly specified)
MDA-MB-468 [16]
  IC50: 125 nM
MV4-11 [17]
  IC50: 0.9 nM
MM1.S
  IC50: 6.7 nM
[14]
  DC50: < 0.5 nM

## Cc1sc2c(c1C)C(c1ccc(Cl)cc1)=N[C@@H](CC(=O)NCCOCCOCCOCCOCCN1CCOc3cc(N(CCC#N)C(=O)CCl)ccc31)c1nnc(C)n1-2
[1]
  Emax: 80%
[2]
  DC50: 1600 nM

## COc1cc(/N=N\c2cccc3c2CN(C2CCC(=O)NC2=O)C3=O)cc(OC)c1OCC(=O)NCCCCNC(=O)C[C@@H]1N=C(c2ccc(Cl)cc2)c2c(sc(C)c2C)-n2c(C)nnc21 (stereo partly specified)
[18]
  half-life: 8.8 h

## Cc1sc2c(c1C)C(c1ccc(Cl)cc1)=N[C@@H](CC(=O)NCCOCCOCCOCCN1CCOc3cc(N(CCC#N)C(=O)CCl)ccc31)c1nnc(C)n1-2
[1]
  Emax: 60%
[2]
  DC50: 3600 nM

## Cc1ncsc1-c1ccc(CNC(=O)[C@@H]2C[C@@H](O)CN2C(=O)[C@@H](NC(=O)COCCOCCOCCNC(=O)C[C@@H]2N=C(c3ccc(Cl)cc3)c3c(sc(C)c3C)-n3c(C)nnc32)C(C)(C)C)cc1
HL-60
  IC50: 1.5 nM
Caspase-3/Caspase-7
  EC50: 150 nM
MV4-11 [19]
  EC50: 50.1 nM
EOL1
  IC50: 1.5 nM

## Cc1ncsc1-c1ccc([C@H](C)NC(=O)[C@@H]2C[C@@H](O)CN2C(=O)[C@@H](NC(=O)COCCCOCCNC(=O)C[C@@H]2N=C(c3ccc(Cl)cc3)c3c(sc(C)c3C)-n3c(C)nnc32)C(C)(C)C)cc1
[20]
  DC50: < 5 nM
HL-60
  IC50: 1.5 nM
Caspase-3/Caspase-7
  EC50: 90 nM
EOL1
  IC50: 1.5 nM
[21]
  DC50: < 5 nM
[22]
  DC50: < 5 nM
[23]
  IC50: < 1 nM

## COC(=O)C[C@H]1[C@]2(C)C3=C(C)[C@H](c4ccoc4-c4ccc(C(=O)NCCCNC(=O)C[C@@H]5N=C(c6ccc(Cl)cc6)c6c(sc(C)c6C)-n6c(C)nnc65)cc4)C[C@H]3O[C@@H]2[C@@H]2OC(=O)[C@]3(C)C=CC(=O)[C@@]1(C)[C@@H]23
[24]
  IC50: 240 nM

## Cc1ncsc1-c1ccc(CNC(=O)[C@@H]2[C@@H](F)[C@@H](O)CN2C(=O)[C@@H](NC(=O)COCCOCCOCCNC(=O)C[C@@H]2N=C(c3ccc(Cl)cc3)c3c(sc(C)c3C)-n3c(C)nnc32)C(C)(C)C)cc1
[25]
  DC50: 1 nM

## CCS(=O)(=O)Nc1ccc(Oc2ccc(F)cc2F)c(-c2cn(C)c(=O)c3[nH]c(C(=O)NCc4cn(CCOCC(=O)Nc5cccc6c5CN(C5CCC(=O)NC5=O)C6=O)nn4)cc23)c1 (stereo unspecified)
BXPC-3
  IC50: 170 nM

## O=C(CCl)N1CCCc2cc(O)ccc21
[26]
  Activity: 35%

## CCS(=O)(=O)Cc1cc2c(cc1C(=O)NCCCCCCCCCCC(=O)N[C@H](C(=O)N1C[C@@H](O)C[C@H]1C(=O)NCc1ccc(-c3scnc3C)cc1)C(C)(C)C)N(c1ncc(F)cc1F)Cc1c[nH]c3c(=O)n(C)cc-2c13
HL-60
  IC50: 0.03 nM
[27]
  Emax: > 99%
EOL1
  IC50: 0.02 nM
[28]
  DC50: 0.03 nM
